Experimental data: ChEMBL document CHEMBL1122294, “Synthesis and biological activity of zoapatanol analogues” (J Med Chem, 1983)
Calls of active or inactive are those of the source. The calls are words filed in the database; no cut-off is given here.

Columns and labels:
Assay type in all cases: functional, organism-based
[1] = system: Cavia porcellus; assay: Effect in guinea pigs at a dose of 80 mg/kg of body weight; A- Partially active; parameters: dose 80 mg/kg
[2] = system: Cavia porcellus; assay: Effect in guinea pigs at a dose of 60 mg/kg of body weight; A- Partially active; parameters: dose 60 mg/kg
[3] = system: Cavia porcellus; assay: Effect on the resorption of implantation sites in guinea pigs at 100 mg/kg administered intraperitoneally; E- Fully effective; parameters: dose 100 mg/kg
[4] = species on record: Cavia porcellus; assay: Pregnancy was determined in guinea pigs after a single dose of 40 mg per guinea pig (n=1 or 2); NE- No effect
[5] = system: Cavia porcellus; assay: Luteolytic activity was determined in guinea pigs after injected for 3 days subcutaneously (12-14 postmating days); IA- Inactive
[6] = system: Cavia porcellus; assay: Postcoital antifertility was determined in guinea pigs after injected for 3 days subcutaneously (22-24 postmating days); IA- Inactive
[7] = species on record: Cavia porcellus; assay: Pregnancy was determined in guinea pigs after a single dose of 24 mg per guinea pig (n=1 or 2); NE- No effect
[8] = system: Cavia porcellus; assay: Postcoital antifertility was determined in guinea pigs administered intraperitoneally as a single dose on day 22 postmating days; IA- Inactive
[9] = system: Cavia porcellus; assay: Postcoital antifertility activity was determined in guinea pigs after injected for 3 days subcutaneously (12-14 postmating days); IA- Inactive
[10] = system: Cavia porcellus; assay: Luteolytic activity was determined in guinea pigs administered intraperitoneally as a single dose on day 22 postmating days; IA- Inactive
[11] = system: Cavia porcellus; assay: Luteolytic activity was determined in guinea pigs after injected for 3 days subcutaneously (22-24 postmating days); IA- Inactive
[12] = system: Cavia porcellus; assay: Pregnancy was determined in guinea pigs after sc administration of 50 or 75 mg per guinea pig on 22-24 postmating days (n=5); NA- No apparent effect
[13] = system: Cavia porcellus; assay: Pregnancy was determined in guinea pigs after sc administration of 40 or 50 mg per guinea pig on 12-14 postmating days (n=5); NA- No apparent effect

Row | SMILES | Activity [1] | Activity [2] | Activity [3] | Activity [4] | Activity [5] | Activity [6] | Activity [7] | Activity [8] | Activity [9] | Activity [10] | Activity [11] | Activity [12] | Activity [13]
1 | CC(C)=CCC(=O)C(C)CCCC1(C)OC/C(=C/CO)CCC1O (centres undefined) | Weak activity | Weak activity | Fully effective | – | – | – | – | – | – | – | – | – | –
2 | CC(C)/C=C/C(=O)C(C)CCCC1(C)COC(CC(=O)O)CO1 (centres undefined) | – | – | – | inactive | inactive | inactive | inactive | inactive | inactive | inactive | inactive | – | –
3 | CC(C)=CCC(=O)C(C)CCCC1(C)COC(CO)CO1 (centres undefined) | – | – | – | – | inactive | inactive | – | inactive | inactive | inactive | inactive | – | –
4 | COC(=O)C(C)CCC[C@]1(C)COC(CO)CO1 (some centres undefined) | – | – | – | – | inactive | inactive | – | inactive | inactive | inactive | inactive | inactive | inactive
5 | CC(C)=CCC(=O)C(C)CCCC1(C)COC(CC(=O)O)CO1 (centres undefined) | – | – | – | – | inactive | inactive | – | inactive | inactive | inactive | inactive | – | –
6 | COC(=O)C(C)CCC[C@@]1(C)COC(CO)CO1 (some centres undefined) | – | – | – | – | inactive | inactive | – | inactive | inactive | inactive | inactive | inactive | inactive
